Consider four compounds from paper PMC6567565, “Modulation of neurological pathways by Salvia officinalis and its dependence on manufacturing process and plant parts used” (BMC Complementary and Alternative Medicine, 2019).

Counter-ions that a name gives are not always drawn.

Assay [1] addresses human serotonin transporters. On the set-up: method as in ref 33 (Tatsumi et al.). As to conditions: [3H]-imipramine binding; ref 33 (Tatsumi et al.); cited from earlier work.
In assay [2] the target is benzodiazepine site of the GABAA receptor. In words: GABAA-benzodiazepine site binding assay ([3H]-Ro-15-1788). The conditions noted are these: reference compound.
Protocol: The GABAA-benzodiazepine site binding assay was performed as described by Mehta and Shank [28], with minor modifications. Membranes were incubated for 30 min at 22 °C in 50 mM Tris-HCl (pH 7.4) and 100 mM NaCl with 1 nM [^3H]-Ro-15-1788. Non-specific binding was determined with 10 μM diazepam.
From every data point non-specific binding was subtracted and data normalized (100% specific binding represents the specific binding of the radioligand to the binding site of the receptor in the absence of any effector).
The target in assay [3] is human serotonin 5-HT2C(e) receptors. The assay is described as follows: serotonin 5-HT2C(e) receptor binding assay ([3H]-mesulergine). As to conditions: reference compound. The procedure: (§1) The serotonin 5-HT2C(e) receptor binding assay was performed according to the data sheet provided by the supplier of the receptor preparation, with modifications. The receptor preparation was incubated for 120 min at 37 °C in 50 mM Tris-HCl (pH 7.4), 0.1% ascorbic acid and 10 μM pargyline with 0.5 nM [N^6-methyl-^3H]-mesulergine in the dark.
All assays were terminated by transfer of the samples onto filter plates (PerkinElmer or Whatman), presoaked in assaybuffer (GABAA, GABAB, alpha2A and muscarinic M3), treated with 0.5% BSA (μ-opioid), presoaked with 0.5% polyethyleneimine (5-HT2B, 5-HT2C(e)), or presoaked with 0.1% polyethyleneimine (5-HT1A, 5-HTT). Filters were washed four times with 200 μl of ice-cold 50 mM Tris-HCl pH 7.4 (GABAA, GABAB, Alpha2A, 5-HT1A, 5-HT2B 5-HT2C(e), μ-opioid, and muscarinic M3) or 50 mM Tris-HCl pH 7.4/0.5 M NaCl (5-HTT), and filter-bound radioactivity was determined by a microplate reader (Microbeta, Wallac, Finnland). […]
The IC50 value (concentration causing half-maximal inhibition of specific binding) was determined by non-linear regression analysis of the competition curves using the “sigmoidal dose-response” algorithm (GraphPad Prism, San Diego, USA). […]

The target of assay [4] is serotonin 5-HT2C receptor. The assay is described as follows: [3H]-mesulergine binding in native female hypothalami preparation. Also noted: species or system human. The conditions noted are these: reference compound. The procedure:
Human frozen hypothalami were from a healthy person and a healthy person (Tissue Solutions Ltd., Glasgow, UK). The tissue was minced in 20 ml 10 mM HEPES pH 7.4, 1 mM EDTA on ice with a disperger (20 s at 28 Trpm) and centrifuged for 15 min at 31,600×g at 4 °C. The pellet was homogenized (10 strokes with a glass-teflon homogenizer, 2000 rounds per minute) at 4 °C and again centrifuged. The latter procedure was repeated once and the pellet finally resupended in 50 mM HEPES pH 7.4, 4 mM MgCl2, and 1 mM EDTA; frozen in liquid nitrogen; and stored at − 80 °C until usage.
as §1
In membranes from human native female hypothalami, no specific binding of the radioligand for the 5-HT1A, [^3H]-8-OH-DPAT, could be observed, indicating the absence of the serotonin 5-HT1A receptor at least in the investigated preparation.

For another assay, the system named is AChE. Also noted: method as in ref 31 (Kishibayashi et al.). As to conditions: ref 31 (Kishibayashi et al.); cited from earlier work.

In the case of `CN(C)CCCN1c2ccccc2CCc2ccccc21` [imipramine, Imipramine hydrochloride], the Kd in assay [1] is 0.0014 µM. In the case of `CN1C(=O)CN=C(c2ccccc2)c2cc(Cl)ccc21` [diazepam], in assay [2], the IC50 is 0.039 µM. In the case of `O=C1Nc2cc(Cl)c(Cl)cc2N2CCNCC12` (centres unmarked) [WAY 161503, WAY 161503 hydrochloride], the figures for the IC50 in assay [3] and in assay [4] were 0.163 µM and 0.347 µM, respectively. `CN(C)C(=O)Oc1cccc([N+](C)(C)C)c1` [neostigmine]: the IC50 in the assay on AChE is 0.036 µM.

Broadly, the Kd is the equilibrium constant for the complex coming apart. Broadly, the IC50 is the concentration that inhibits the measured activity by half.
